Experimental data as given in patent US9725460B2, “Oridonin analogs, compositions, and methods related thereto” (THE BOARD OF REGENTS OF THE UNIVERSITY OF TEXAS SYSTEM, priority 2013, dated 2017).
Values after ≈ are worked out from the molar mass of the structure shown. Read-outs that look alike come from different tables or passages of the source.

What was measured:
Panc-1 = assay: Cancer cell proliferation assay, Panc-1; format: cell-based; conditions: Homo sapiens
Procedure: (§1) In Vitro Determination of Effects of Synthesized Diterpenoids on Cancer Cell Proliferation. […] Then MTT solution was removed, and 150 μL of DMSO was added to each well. Absorbance of all wells was determined by measuring OD at 550 nm after a 10 min incubation on a 96-well GlowMaxate absorbance reader (Promega, Madison, Wis.). Each individual compound was tested in quadruplicate wells for each concentration.

AsPC1 = assay: Cancer cell proliferation assay, AsPC1; format: cell-based; conditions: Homo sapiens
Procedure: as §1

DU145 = assay: Cancer cell proliferation assay, DU145; format: cell-based; conditions: Homo sapiens
[1] = tested on: breast, pancreatic, and prostate cancer cell lines; assay: Anti-proliferation effects against cancer cell lines; format: cell-based, human; conditions: summary of Tables 1 and 2
Procedure: (§2) In Vitro Determination of Effects of Synthesized Diterpenoids on Cancer Cell Proliferation. Breast cancer cell lines MCF-7, MDA-MB-231, […] and MCF/ADR were seeded in 96-well plates at a density of 1×10^4 cells/well and treated with DMSO and 0.01, 0.1, 1, 5, 10, and 100 μM of individual compound for 48 h, and then 20 μL of 3-(4,5-dimethylthiazol-2-yl)-2,5-diphenyltetrazolium bromide (MTT) (5 mg/mL in PBS) was added to each well and further incubated for another 4 h. Then MTT solution was removed, and 150 μL of DMSO was added to each well. Absorbance of all wells was determined by measuring OD at 550 nm after a 10 min incubation on a 96-well GlowMaxate absorbance reader (Promega, Madison, Wis.). Each individual compound was tested in quadruplicate wells for each concentration.

MCF-7 = assay: MTT cancer cell proliferation assay, MCF-7; format: cell-based, human
Procedure: as §2
(§3) The growth inhibitory effects of the newly generated pyran-fused diterpenoids were evaluated in four breast cancer cell lines MCF-7 (ER-positive), MDAMB-231 (ER-negative and triple-negative), MDA-MB-468 (ER-negative and triple-negative) as well as MCF-7/ADR (adriamycin-resistant) using MTT assays as described in the Experimental Section.

MDA-MB-231 = assay: MTT cancer cell proliferation assay, MDA-MB-231; format: cell-based, human
Procedure: as §2, §3

Aqueous solubility = format: physicochemical; conditions: for solubility: water; for Aqueous solubility compared with oridonin: FIG. 2
MCF-7/ADR = assay: MTT growth inhibition, drug-resistant MCF-7/ADR; format: cell-based, human; conditions: Table 3; adriamycin-resistant; MTT 48 h; mean ± SE of three experiments
Procedure: as §2
as §3, with “Section. The capability of these new molecules to inhibit the growth of cancer cells was summarized in Table 3 and compared with that of adriamycin and 1 spontaneously.” for “Section.”

MDA-MB-468 = assay: MTT cancer cell proliferation assay, MDA-MB-468; format: cell-based, human; conditions: Table 3; pyran-fused diterpenoids; MTT 48 h; mean ± SE of three experiments
Procedure: as §2
as §3, with “Section. The capability of these new molecules to inhibit the growth of cancer cells was summarized in Table 3 and compared with that of adriamycin and 1 spontaneously.” for “Section.”

[2] = PANC-1, Table 1a, pancreatic cancer, read-out: IC50 (μM) Panc-1
[3] = PANC-1, Table 2b, mean of at least three experiments, read-out: Effect on proliferation Panc-1 (IC50)
[4] = ASPC1, Table 1a, pancreatic cancer, read-out: IC50 (μM) AsPC1
[5] = ASPC1, Table 2b, mean of at least three experiments, read-out: Effect on proliferation AsPC1 (IC50)
[6] = DU-145, Table 1a, prostate cancer, read-out: IC50 (μM) DU145
[7] = DU-145, Table 2b, mean of at least three experiments, read-out: Effect on proliferation DU145 (IC50)
[8] = Homo sapiens, MCF7, Table 1a, breast cancer, read-out: IC50 (μM) MCF-7
[9] = Homo sapiens, MCF7, Table 2b, mean of at least three experiments, read-out: Effect on proliferation MCF-7 (ER positive) (IC50)
[10] = Homo sapiens, MDA-MB-231, Table 1a, breast cancer, read-out: IC50 (μM) MDA-MB-231
[11] = Homo sapiens, MDA-MB-231, Table 2b, mean of at least three experiments, read-out: Effect on proliferation MDA-MB-231 (ER negative) (IC50)
[12] = in the form of HCl salt, read-out: Aqueous solubility (saturated concentration)

SMILES	IC50 (Panc-1; [2]) [µM]	IC50 (Panc-1; [3]) [µM]	IC50 (AsPC1; [4]) [µM]	IC50 (AsPC1; [5]) [µM]	IC50 (DU145; [6]) [µM]	IC50 (DU145; [7]) [µM]	IC50 values, anti-proliferation effects against cancer cell lines [1]	IC50 (MCF-7; [8]) [µM]	IC50 (MCF-7; [9]) [µM]	IC50 (MDA-MB-231; [10]) [µM]	IC50 (MDA-MB-231; [11]) [µM]	solubility (Aqueous solubility; [12]) [mg/mL]	further results
C=C1C(=O)[C@@]23C(CCC1[C@H]2O)[C@@]12COC3(O)[C@@H](O)C1C(C)(C)Cc1sc(NCCN3CCCCC3)nc12 (stereo in doubt) [CYD-6-20, (6S,7S,7aR,10R,12bR,15R)-6,7,15-trihydroxy-5,5-dimethyl-9-methylene-2-((2-(piperidin-1-yl)ethyl)amino)-5,5a,6,7,10,11,12,12a-octahydro-4H-7,12b(epoxymethano)-7a,10-methanocyclohepta[7,8]naphtho[1,2-d]thiazol-8(9H)-one]	1.54	1.5	1.1	1.1	1.16	1.2	–	1	1	1.83	1.8	> 100	–
C=C1C(=O)[C@]23[C@H](O)[C@H]1CC[C@H]2[C@@]12CO[C@]3(O)[C@@H](O)[C@@H]1C(C)(C)Cc1sc(NC)nc12 [CYD-5-54, (5aR,6S,7S,7aR,10S,12aS,12bR,15R)-6,7,15-trihydroxy-5,5-dimethyl-2-(methylamino)-9-methylene-5,5a,6,7,10,11,12,12a-octahydro-4H-7,12b-(epoxymethano)-7a,10-methanocyclohepta[7,8]naphtho[1,2-d]thiazol-8(9H)-one]	2.33	2.3	1.84	1.8	4.05	4.1	low micromolar to nanomolar	1.28	1.3	2.06	2.1	81.2	Aqueous solubility compared with oridonin (Aqueous solubility): significantly improved solubility; Improvement of aqueous solubility in comparison with oridonin (Aqueous solubility; HCl salt vs oridonin (1.29 mg/mL)): ~62 fold
C=C1C(=O)[C@]23[C@H](O)[C@H]1CC[C@H]2[C@@]12CO[C@]3(O)[C@@H](O)[C@@H]1C(C)(C)Cc1sc(NCCCC)nc12 [CYD-6-28, (5aR,6S ,7S,7aR,10S,12aS,12bR,15R)-2-(butylamino)-6,7,15-trihydroxy-5,5-dimethyl-9-methylene-5,5a,6,7,10,11,12,12a-octahydro-4H-7,12b-(epoxymethano)-7a,10-methanocyclohepta[7,8]naphtho[1,2-d]thiazol-8(9H)-one]	4.01	4	1.39	1.4	4.22	4.2	low micromolar to nanomolar	0.59	0.6	1.06	1.1	–	–
C=C1C(=O)[C@@]23C(CC[C@H]1[C@H]2O)[C@@]12CO[C@]3(O)[C@@H](O)C1C(C)(C)Cc1sc(C)nc12 (stereo partly drawn) [CYD-6-19, (6S,7S,7aR,10R,12bR,15R)-6,7,15-trihydroxy-2,5,5-trimethyl-9-methylene-5,5a,6,7,10,11,12,12a-octahydro-4H-7,12b-(epoxymethano)-7a,10-methanocyclohepta[7,8]naphtho[1,2-d]thiazol-8(9H)-one]	–	–	–	–	–	–	–	–	–	–	–	–	IC50 (Panc-1; PANC-1, read-out: Effect on proliferation Panc-1 (IC50)): 7.8 µM; IC50 (Panc-1; PANC-1, read-out: IC50 (μM) Panc-1): 7.83 µM; IC50 (AsPC1; ASPC1, read-out: Effect on proliferation AsPC1 (IC50)): 6.5 µM; IC50 (AsPC1; ASPC1, read-out: IC50 (μM) AsPC1): 6.46 µM; IC50 (DU145; DU-145, read-out: Effect on proliferation DU145 (IC50)): 7.6 µM; IC50 (DU145; DU-145, read-out: IC50 (μM) DU145): 7.63 µM; Aqueous solubility compared with oridonin (Aqueous solubility): significantly improved solubility; solubility (Aqueous solubility; compound as such, read-out: Aqueous solubility): 4.47 mg/mL (≈ 10.7 mM); IC50 (MCF-7; Homo sapiens, MCF7, read-out: Effect on proliferation MCF-7 (ER positive) (IC50)): 2.6 µM; IC50 (MCF-7; Homo sapiens, MCF7, read-out: IC50 (μM) MCF-7): 2.63 µM; IC50 (MDA-MB-231; Homo sapiens, MDA-MB-231, read-out: Effect on proliferation MDA-MB-231 (ER negative) (IC50)): 6.9 µM; IC50 (MDA-MB-231; Homo sapiens, MDA-MB-231, read-out: IC50 (μM) MDA-MB-231): 6.88 µM
C=C1C(=O)[C@@]23[C@@H]4OC(C)(C)O[C@@]25OC[C@]2(C6=C(CC[C@@H](OCC)O6)CC(C)(C)[C@H]2[C@@H]5O)[C@@H]3CC[C@@H]14 [CYD-8-45-1]	–	–	–	–	–	–	–	–	–	–	–	–	IC50 (MCF-7/ADR): 4.65 ± 3.15 µM; IC50 (MCF-7; Table 3, pyran-fused diterpenoids, MTT 48 h, mean ± SE of three experiments, read-out: IC50 (μM) MCF-7): 3.52 ± 2.15 µM; IC50 (MDA-MB-231; Table 3, pyran-fused diterpenoids, MTT 48 h, mean ± SE of three experiments, read-out: IC50 (μM) MDA-MB-231): 6.13 ± 2.43 µM; IC50 (MDA-MB-468): 5.4 ± 0.98 µM

Continued, in another order:

IC50 (Panc-1; [2]) [µM]	IC50 (Panc-1; [3]) [µM]	IC50 (AsPC1; [4]) [µM]	IC50 (AsPC1; [5]) [µM]	IC50 (DU145; [6]) [µM]	IC50 (DU145; [7]) [µM]	IC50 values, anti-proliferation effects against cancer cell lines [1]	IC50 (MCF-7; [8]) [µM]	IC50 (MCF-7; [9]) [µM]	IC50 (MDA-MB-231; [10]) [µM]	IC50 (MDA-MB-231; [11]) [µM]	solubility (Aqueous solubility; [12]) [mg/mL]	SMILES	further results
3.74	3.7	1.65	1.7	1.82	1.8	low micromolar to nanomolar	0.94	0.9	0.83	0.8	–	C=C1C(=O)[C@@]23C(CC[C@H]1[C@H]2O)[C@@]12CO[C@]3(O)[C@@H](O)C1C(C)(C)Cc1sc(NC3CCCCC3)nc12 (stereo partly drawn) [CYD-6-17-2, (6S,7S,7aR,10R,12bR,15R)-2-(cyclohexylamino)-6,7,15-trihydroxy-5,5-dimethyl-9-methylene-5,5a,6,7,10,11,12,12a-octahydro-4H-7,12b-(epoxymethano)-7a,10-methanocyclohepta[7,8]naphtho[1,2-d]thiazol-8(9H)-one]	–
3.27	3.3	1.45	1.4	5.31	5.3	low micromolar to nanomolar	0.82	0.8	0.28	0.3	–	C=C1C(=O)[C@]23[C@H](O)[C@H]1CC[C@H]2[C@@]12CO[C@]3(O)[C@@H](O)[C@@H]1C(C)(C)Cc1sc(NC(C)C)nc12 [CYD-6-30, (5aR,6S,7S,7aR,10S,12aS,12bR,15R)-6,7,15-trihydroxy-2-(isopropylamino)-5,5-dimethyl-9-methylene-5,5a,6,7,10,11,12,12a-octahydro-4H-7,12b-(epoxymethano)-7a,10-methanocyclohepta[7,8]naphtho[1,2-d]thiazol-8(9H)-one]	–
15.4	> 10	> 10	> 10	35.9	> 10	–	3.43	3.4	> 10	> 10	> 100	C=C1C(=O)[C@]23[C@H](O)[C@H]1CC[C@H]2[C@@]12CO[C@]3(O)[C@@H](O)[C@@H]1C(C)(C)Cc1sc(NC(=N)N)nc12 [CYD-6-29, 1-((5aR,6S,7S,7aR,10S,12aS,12bR,15R)-6,7,15-trihydroxy-5,5-dimethyl-9-methylene-8-oxo-5,5a,6,7,8,9,10,11,12,12a-decahydro-4H-7,12b-(epoxymethano)-7a,10-methanocyclohepta[7,8]naphtho[1,2-d]thiazol-2-yl)guanidine]	–
